{"source": "patent US20230271964A1", "about": "“5-AMINO-8-(4-PYRIDYL)-[1,2,4]TRIAZOLO[4,3-C]PYRIMIDIN-3-ONE COMPOUNDS FOR USE AGAINST CANCER” (ASTRAZENECA AB, priority 2020, published 2023)", "key": {"[1]": {"molecular_target": "human adenosine A1 receptor (Homo sapiens (Human), UniProt P30542)", "sequence (P30542 whole entry)": "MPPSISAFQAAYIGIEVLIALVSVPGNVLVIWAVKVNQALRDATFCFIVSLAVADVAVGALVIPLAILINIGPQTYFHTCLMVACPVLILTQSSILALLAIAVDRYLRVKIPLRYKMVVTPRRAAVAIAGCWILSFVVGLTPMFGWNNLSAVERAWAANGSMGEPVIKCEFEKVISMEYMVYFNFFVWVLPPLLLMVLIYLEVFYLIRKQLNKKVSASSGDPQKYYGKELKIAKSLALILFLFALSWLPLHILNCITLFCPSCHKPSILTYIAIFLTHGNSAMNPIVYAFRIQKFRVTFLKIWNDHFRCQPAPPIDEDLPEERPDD", "experiment": "Adenosine receptor inhibition binding assay, [3H]DPCPX, A1 receptor membranes", "conditions": "1 nM [3H]DPCPX, 25° C., 1 h, Ki from IC50 by Cheng-Prusoff; for Ki: read-out: A1 pKi (converted)", "method": "(§1) Inhibition binding assays were performed using 0.2 µg of membranes prepared from HEK293 cells infected with BacMam human adenosine A2A receptor or 1.4 µg of membranes prepared from HEK293 cells infected with BacMam human adenosine A1 receptor. Membranes were incubated in 50 mM Tris-HCl (HEK293-hA2A; pH 7.4) or 50 mM Tris-HCl, 100 mM NaCl, 10 mM MgCl2 (CHO-hA1; pH 7.4) in the presence of varying concentrations of test compound and 1 nM [^3H]ZM241385 (HEK293-hA2A) or [^3H]DPCPX (CHO-hA1) at 25° C. for 1 h. The assay was then terminated by rapid filtration onto GF/B grade Unifilter plates using a TomTec cell harvester, followed by 5 × 0.5 ml washes with ddH2O. Nonspecific binding was defined in the presence of 1 µM CGS 15943 (HEK293-hA2A) or 1 µM DPCPX (CHO-hA1). Bound radioactivity was determined by liquid scintillation counting and inhibition curves were analysed using a four-parameter logistic equation. IC50 values were converted to Ki values with the Cheng-Prusoff equation using a KD value derived from saturation binding studies."}, "[2]": {"molecular_target": "human adenosine A2A receptor (Homo sapiens (Human), UniProt P29274)", "sequence (P29274 whole entry)": "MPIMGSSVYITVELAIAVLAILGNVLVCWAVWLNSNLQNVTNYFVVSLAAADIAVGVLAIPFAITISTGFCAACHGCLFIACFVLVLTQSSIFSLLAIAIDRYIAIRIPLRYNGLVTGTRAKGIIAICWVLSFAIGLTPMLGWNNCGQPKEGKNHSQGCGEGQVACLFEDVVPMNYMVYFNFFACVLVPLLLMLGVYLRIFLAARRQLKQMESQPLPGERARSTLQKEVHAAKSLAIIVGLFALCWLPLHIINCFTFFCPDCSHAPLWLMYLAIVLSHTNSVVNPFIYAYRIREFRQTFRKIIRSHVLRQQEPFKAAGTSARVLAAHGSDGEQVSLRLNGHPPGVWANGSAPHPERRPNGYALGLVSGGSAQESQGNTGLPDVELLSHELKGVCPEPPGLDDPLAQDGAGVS", "experiment": "Adenosine receptor inhibition binding assay, [3H]ZM241385, HEK293 A2A receptor membranes", "conditions": "1 nM [3H]ZM241385, HEK293-hA2A membranes, 25° C., 1 h, Ki from IC50 by Cheng-Prusoff; for Ki: read-out: A2A pKi (converted)", "method": "as §1"}}, "data": [{"molecule": "Cc1cc(-c2c(-c3ccccc3)nc(N)n3c(=O)n(Cc4ncco4)nc23)cc(C)n1", "note": "[Example 1-9, 5-amino-8-(2,6-dimethyl-4-pyridyl)-2-(oxazol-2-ylmethyl)-7-phenyl-[1,2,4]triazolo[4,3-c]pyrimidin-3-one]", "values": [{"measurement": "A1 pKi", "setting": "[1]", "result": 7.0}, {"measurement": "A2A pKi", "setting": "[2]", "result": 9.1}]}, {"molecule": "Cc1cc(-c2c(-c3ccccc3)nc(N)n3c(=O)n(Cc4ccnn4C)nc23)cc(C)n1", "note": "[Example 1-12, 5-amino-8-(2,6-dimethyl-4-pyridyl)-2-[(2-methylpyrazol-3-yl)methyl]-7-phenyl-[1,2,4]triazolo[4,3-c]pyrimidin-3-one]", "values": [{"measurement": "A1 pKi", "setting": "[1]", "result": 7.1}, {"measurement": "A2A pKi", "setting": "[2]", "result": 9.0}]}, {"molecule": "Cc1cc(-c2c(-c3ccccc3)nc(N)n3c(=O)n(CCN(C)c4cn[nH]c4)nc23)cc(C)n1", "note": "[Example 3-3, 5-amino-8-(2,6-dimethyl-4-pyridyl)-2-[2-[methyl(1H-pyrazol-4-yl)amino]ethyl]-7-phenyl-[1,2,4]triazolo[4,3-c]pyrimidin-3-one]", "values": [{"measurement": "A1 pKi", "setting": "[1]", "result": 5.7}, {"measurement": "A2A pKi", "setting": "[2]", "result": 7.2}]}, {"molecule": "Cc1cc(-c2c(-c3ccccc3)nc(N)n3c(=O)n(Cc4nncn4C)nc23)cc(C)n1", "note": "[Example 1-28, 5-amino-8-(2,6-dimethyl-4-pyridyl)-2-[(4-methyl-1,2,4-triazol-3-yl)methyl]-7-phenyl-[1,2,4]triazolo[4,3-c]pyrimidin-3-one]", "values": [{"measurement": "A1 pKi", "setting": "[1]", "result": 6.5}, {"measurement": "A2A pKi", "setting": "[2]", "result": 7.7}]}, {"molecule": "COc1cc(-c2c(-c3ccc(F)cc3)nc(N)n3c(=O)n(Cc4nccn4C)nc23)cc(CO)n1", "note": "[Example 1-65, 5-amino-7-(4-fluorophenyl)-8-[2-(hydroxymethyl)-6-methoxy-4-pyridyl]-2-[(1-methylimidazol-2-yl)methyl]-[1,2,4]triazolo[4,3-c]pyrimidin-3-one]", "values": [{"measurement": "A1 pKi", "setting": "[1]", "result": 7.1}, {"measurement": "A2A pKi", "setting": "[2]", "result": 10.0}]}, {"molecule": "[2H]c1c([2H])c([2H])c(-c2nc(N)n3c(=O)n(C[C@H]4CCCO4)nc3c2-c2cc(Cl)nc(CO)c2)c([2H])c1[2H]", "note": "[Example 2-33, 5-amino-8-[2-chloro-6-(hydroxymethyl)-4-pyridyl]-7-(2,3,4,5,6-pentadeuteriophenyl)-2-[[(2R)-tetrahydrofuran-2-yl]methyl]-[1,2,4]triazolo[4,3-c]pyrimidin-3-one]", "values": [{"measurement": "Ki", "setting": "[1]", "result": 158, "unit": "nM"}, {"measurement": "Ki", "setting": "[2]", "result": 0.316, "unit": "nM"}]}, {"molecule": "Cc1cc(-c2c(-c3ccccc3)nc(N)n3c(=O)n(Cc4nn[nH]c4C)nc23)cc(C)n1", "note": "[Example 1-29, 5-amino-8-(2,6-dimethylpyridin-4-yl)-2-((5-methyl-1H-1,2,3-triazol-4-yl)methyl)-7-phenyl-[1,2,4]triazolo[4,3-c]pyrimidin-3(2H)-one]", "values": [{"measurement": "A1 pKi", "setting": "[1]", "result": 7.0}, {"measurement": "A2A pKi", "setting": "[2]", "result": 8.6}]}, {"molecule": "Cc1cc(-c2c(-c3ccccc3)nc(N)n3c(=O)n(C[C@H]4CC(F)(F)CN4)nc23)cc(C)n1", "note": "[Example 2-12, 5-amino-2-[[(2R)-4,4-difluoropyrrolidin-2-yl]methyl]-8-(2,6-dimethyl-4-pyridyl)-7-phenyl-[1,2,4]triazolo[4,3-c]pyrimidin-3-one]", "values": [{"measurement": "A1 pKi", "setting": "[1]", "result": 6.4}, {"measurement": "A2A pKi", "setting": "[2]", "result": 8.1}]}, {"molecule": "Cc1cc(-c2c(-c3ccccc3)nc(N)n3c(=O)n(CC4CCCN4)nc23)cc(C)n1", "note": "(stereo not shown) [Example 2-5, 5-amino-8-(2,6-dimethyl-4-pyridyl)-7-phenyl-2-(pyrrolidin-2-ylmethyl)-[1,2,4]triazolo[4,3-c]pyrimidin-3-one]", "values": [{"measurement": "A1 pKi", "setting": "[1]", "result": 6.1}, {"measurement": "A2A pKi", "setting": "[2]", "result": 7.4}]}, {"molecule": "Cc1ocnc1Cn1nc2c(-c3cc(C)[n+]([O-])c(C)c3)c(-c3ccccc3)nc(N)n2c1=O", "note": "[Example 1-34, 5-amino-8-(2,6-dimethyl-1-oxido-pyridin-1-ium-4-yl)-2-[(5-methyloxazol-4-yl)methyl]-7-phenyl-[1,2,4]triazolo[4,3-c]pyrimidin-3-one]", "values": [{"measurement": "A1 pKi", "setting": "[1]", "result": 7.5}, {"measurement": "A2A pKi", "setting": "[2]", "result": 9.2}]}, {"molecule": "Cc1cc(-c2c(-c3ccccc3)nc(N)n3c(=O)n(Cc4cocn4)nc23)cc(C)n1", "note": "[Example 1-10, 5-amino-8-(2,6-dimethyl-4-pyridyl)-2-(oxazol-4-ylmethyl)-7-phenyl-[1,2,4]triazolo[4,3-c]pyrimidin-3-one]", "values": [{"measurement": "A1 pKi", "setting": "[1]", "result": 6.8}, {"measurement": "A2A pKi", "setting": "[2]", "result": 9.2}]}, {"molecule": "Cc1cc(-c2c(N3CCCCC3)nc(N)n3c(=O)n(Cc4ncoc4C)nc23)cc(C)n1", "note": "[Example 4-1, 5-amino-8-(2,6-dimethyl-4-pyridyl)-2-[(5-methyloxazol-4-yl)methyl]-7-(1-piperidyl)-[1,2,4]triazolo[4,3-c]pyrimidin-3-one]", "values": [{"measurement": "A1 pKi", "setting": "[1]", "result": "<6.0"}, {"measurement": "A2A pKi", "setting": "[2]", "result": 8.9}]}, {"molecule": "Cc1cc(-c2c(-c3ccccc3)nc(N)n3c(=O)n(Cc4cocn4)nc23)cc(CO)n1", "note": "[Example 1-42, 5-amino-8-[2-(hydroxymethyl)-6-methyl-4-pyridyl]-2-(oxazol-4-ylmethyl)-7-phenyl-[1,2,4]triazolo[4,3-c]pyrimidin-3-one]", "values": [{"measurement": "A1 pKi", "setting": "[1]", "result": 6.7}, {"measurement": "A2A pKi", "setting": "[2]", "result": 8.5}]}, {"molecule": "Cc1cc(-c2c(-c3ccccc3)nc(N)n3c(=O)n(C[C@H]4C[C@@H](O)CN4)nc23)cc(C)n1", "note": "[Example 2-23, 5-amino-8-(2,6-dimethyl-4-pyridyl)-2-[[(2R,4R)-4-hydroxypyrrolidin-2-yl]methyl]-7-phenyl-[1,2,4]triazolo[4,3-c]pyrimidin-3-one]", "values": [{"measurement": "A1 pKi", "setting": "[1]", "result": 5.9}, {"measurement": "A2A pKi", "setting": "[2]", "result": 8.2}]}, {"molecule": "Cc1cc(-c2c(-c3ccccc3)nc(N)n3c(=O)n(Cc4ccn[nH]4)nc23)cc(C)n1", "note": "[Example 1-25, 5-amino-8-(2,6-dimethyl-4-pyridyl)-7-phenyl-2-(1H-pyrazol-5-ylmethyl)-[1,2,4]triazolo[4,3-c]pyrimidin-3-one]", "values": [{"measurement": "A1 pKi", "setting": "[1]", "result": 7.1}, {"measurement": "A2A pKi", "setting": "[2]", "result": 8.6}]}, {"molecule": "[2H]c1c([2H])c([2H])c(-c2nc(N)n3c(=O)n(Cc4nccn4C)nc3c2-c2cc(C)nc(CO)c2)c([2H])c1[2H]", "note": "[Example 1-48, 5-amino-8-[2-(hydroxymethyl)-6-methyl-4-pyridyl]-2-[(1-methylimidazol-2-yl)methyl]-7-(2,3,4,5,6-pentadeuteriophenyl)-[1,2,4]triazolo[4,3-c]pyrimidin-3-one]", "values": [{"measurement": "Ki", "setting": "[1]", "result": 158, "unit": "nM"}, {"measurement": "Ki", "setting": "[2]", "result": 1.26, "unit": "nM"}]}, {"molecule": "[2H]c1c([2H])c([2H])c(-c2nc(N)n3c(=O)n(Cc4ncoc4C)nc3c2-c2cc(C)nc(CO)c2)c([2H])c1[2H]", "note": "[Example 1-47, 5-amino-8-[2-(hydroxymethyl)-6-methyl-4-pyridyl]-2-[(5-methyloxazol-4-yl)methyl]-7-(2,3,4,5,6-pentadeuteriophenyl)-[1,2,4]triazolo[4,3-c]pyrimidin-3-one]", "values": [{"measurement": "Ki", "setting": "[1]", "result": 158, "unit": "nM"}, {"measurement": "Ki", "setting": "[2]", "result": 0.316, "unit": "nM"}]}, {"molecule": "Cc1cc(-c2c(-c3ccccc3)nc(N)n3c(=O)n(CCNC4CCN(C(=O)c5cccnc5)C4)nc23)cc(C)n1", "note": "(stereo not shown) [Example 3-2, 5-amino-8-(2,6-dimethyl-4-pyridyl)-7-phenyl-2-[2-[[1-(pyridine-3-carbonyl)pyrrolidin-3-yl]amino]ethyl]-[1,2,4]triazolo[4,3-c]pyrimidin-3-one]", "values": [{"measurement": "A1 pKi", "setting": "[1]", "result": 5.6}, {"measurement": "A2A pKi", "setting": "[2]", "result": 6.9}]}, {"molecule": "Cc1cc(-c2c(-c3ccccc3)nc(N)n3c(=O)n(C[C@@H]4C[C@H](F)CN4)nc23)cc(C)n1", "note": "[Example 2-20, 5-amino-8-(2,6-dimethyl-4-pyridyl)-2-[[(2S,4S)-4-fluoropyrrolidin-2-yl]methyl]-7-phenyl-[1,2,4]triazolo[4,3-c]pyrimidin-3-one]", "values": [{"measurement": "A1 pKi", "setting": "[1]", "result": 6.3}, {"measurement": "A2A pKi", "setting": "[2]", "result": 8.5}]}, {"molecule": "Cc1ocnc1Cn1nc2c(-c3cc(Cl)nc(CO)c3)c(-c3ccc(F)cc3)nc(N)n2c1=O", "note": "[Example 1-59, 5-amino-8-[2-chloro-6-(hydroxymethyl)-4-pyridyl]-7-(4-fluorophenyl)-2-[(5-methyloxazol-4-yl)methyl]-[1,2,4]triazolo[4,3-c]pyrimidin-3-one]", "values": [{"measurement": "A1 pKi", "setting": "[1]", "result": 6.8}, {"measurement": "A2A pKi", "setting": "[2]", "result": 9.9}]}, {"molecule": "Cc1cc(-c2c(-c3ccccc3)nc(N)n3c(=O)n(C[C@@H]4C[C@H](O)CN4C)nc23)cc(C)n1", "note": "[Example 2-25, 5-amino-8-(2,6-dimethyl-4-pyridyl)-2-[[(2S,4S)-4-hydroxy-1-methyl-pyrrolidin-2-yl]methyl]-7-phenyl-[1,2,4]triazolo[4,3-c]pyrimidin-3-one]", "values": [{"measurement": "A2A pKi", "setting": "[2]", "result": 8.8}]}, {"molecule": "Cc1cc(-c2c(-c3ccccc3)nc(N)n3c(=O)n(C[C@@H]4CCCO4)nc23)cc(C)n1", "note": "[Example 2-17, 5-amino-8-(2,6-dimethyl-4-pyridyl)-7-phenyl-2-[[(2S)-tetrahydrofuran-2-yl]methyl]-[1,2,4]triazolo[4,3-c]pyrimidin-3-one]", "values": [{"measurement": "A2A pKi", "setting": "[2]", "result": 8.6}]}, {"molecule": "Cc1cc(-c2c(-c3ccccc3)nc(N)n3c(=O)n(C[C@H]4C[C@@H](O)CN4C)nc23)cc(C)n1", "note": "[Example 2-24, 5-amino-8-(2,6-dimethyl-4-pyridyl)-2-[[(2R,4R)-4-hydroxy-1-methyl-pyrrolidin-2-yl]methyl]-7-phenyl-[1,2,4]triazolo[4,3-c]pyrimidin-3-one]", "values": [{"measurement": "A2A pKi", "setting": "[2]", "result": 8.8}]}]}
